Measured values: US20230017045A1, “PYRIDINE AND PYRIMIDINE CARBOXYLATE HERBICIDES AND METHODS OF USE THEREOF” (Dow AgroSciences LLC, priority 2017, published 2023)
Where two headings read alike, the source gives them in different places.

Tested on: test plant species
Test: Post-emergent herbicidal activity test (greenhouse, foliar spray, visual growth reduction)
Format: in vivo
Details: post-emergence, 336 h, 140 g ai/ha
Protocol: Post-emergent Test: Seeds or nutlets of the desired test plant species were planted in Sun Gro Metro-Mix® 360 planting mixture, which typically has a pH of 6.0 to 6.8 and an organic matter content of about 30 percent, in plastic pots with a surface area of 64 square centimeters. In some aspects, to ensure good germination and healthy plants, a fungicide treatment and/or other chemical or physical treatment was applied. The plants were grown for 7-21 d in a greenhouse with an approximate 15 h photoperiod which was maintained at 23-29° C. during the day and 22-28° C. during the night. Nutrients and water were added on a regular basis and supplemental lighting was provided with overhead metal halide 1000-Watt lamps as necessary. Plants were used for testing when they reached the first or second true leaf stage. A weighed amount, determined by the highest rate to be tested, of each test compound was placed in a 25 mL glass vial and was dissolved in 4 mL of a 97:3 v/v mixture of acetone and DMSO to obtain concentrated stock solutions. […] The concentrated stock solutions obtained were diluted with 20 mL of an aqueous mixture containing acetone, water, isopropyl alcohol, DMSO, […] crop oil concentrate, and X-77 surfactant in a 48.5:39:10:1.5:1.0:0.02 v/v ratio to obtain spray solutions containing the application rate. Compound requirements are based upon a 12 mL application volume at a rate of 187 liters per hectare (L/ha). Formulated compounds were applied to the plant material with an overhead Mandel track sprayer equipped with […] nozzles calibrated to deliver 187 L/ha over an application area of 0.64 square meters at a spray height of 18 inches (43 cm) above the average plant canopy height. Control plants were sprayed in the same manner with the solvent blank. The treated plants and control plants were placed in a greenhouse as described above and watered by subirrigation to prevent wash-off of the test compounds. After 14 d, the condition of the test plants as compared with that of the nontreated and control plants was determined visually and scored on a scale of 0 to 100 percent where 0 corresponds to no injury and 100 corresponds to complete control. In the reporting of the results, Table A: Percent Growth Reduction Conversion Table was used.

[1] = ALOMY: blackgrass (Alopecurus myosuroides), 14 days after application, read-out: Visual Growth Reduction (%) 14 Days After Application, ALOMY
[2] = AMARE: redroot pigweed (Amaranthus retroflexus), 14 days after application, read-out: Visual Growth Reduction (%) 14 Days After Application, AMARE
[3] = AVEFA: wild oat (Avena fatua), 14 days after application, read-out: Visual Growth Reduction (%) 14 Days After Application, AVEFA
[4] = CHEAL: lambsquarters (Chenopodium album), 14 days after application, read-out: Visual Growth Reduction (%) 14 Days After Application, CHEAL
[5] = CIRAR: canada thistle (Cirsium arvense), 14 days after application, read-out: Visual Growth Reduction (%) 14 Days After Application, CIRAR
[6] = CYPES: yellow nutsedge (Cyperus esculentus), 14 days after application, read-out: Visual Growth Reduction (%) 14 Days After Application, CYPES
[7] = DIGSA: crabgrass (Digitaria sanguinalis), 14 days after application, read-out: Visual Growth Reduction (%) 14 Days After Application, DIGSA
[8] = ECHCG: barnyardgrass (Echinochloa crus-galli), 14 days after application, read-out: Visual Growth Reduction (%) 14 Days After Application, ECHCG
[9] = IPOHE: ivy-leaf morning glory (Ipomoea hederacea), 14 days after application, read-out: Visual Growth Reduction (%) 14 Days After Application, IPOHE
[10] = KCHSC: kochia (Bassia scoparia), 14 days after application, read-out: Visual Growth Reduction (%) 14 Days After Application, KCHSC
[11] = ORYSA: rice (Oryza sativa), 14 days after application, read-out: Visual Growth Reduction (%) 14 Days After Application, ORYSA
[12] = SETFA: giant foxtail (Setaria faberi), 14 days after application, read-out: Visual Growth Reduction (%) 14 Days After Application, SETFA
[13] = SORVU: grain sorghum (Sorghum vulgare), 14 days after application, read-out: Visual Growth Reduction (%) 14 Days After Application, SORVU
[14] = STEME: common chickweed (Stellaria media), 14 days after application, read-out: Visual Growth Reduction (%) 14 Days After Application, STEME
[15] = TRZAS: wheat, spring (Triticum aestivum), 14 days after application, read-out: Visual Growth Reduction (%) 14 Days After Application, TRZAS
[16] = blackgrass (Alopecurus myosuroides), 14 Days After Application, read-out: Visual Growth Reduction (%) ALOMY
[17] = canada thistle (Cirsium arvense), 14 Days After Application, read-out: Visual Growth Reduction (%) CIRAR
[18] = crabgrass (Digitaria sanguinalis), 14 Days After Application, read-out: Visual Growth Reduction (%) DIGSA
[19] = lambsquarters (Chenopodium album), 14 Days After Application, read-out: Visual Growth Reduction (%) CHEAL
[20] = redroot pigweed (Amaranthus retroflexus), 14 Days After Application, read-out: Visual Growth Reduction (%) AMARE
[21] = wild oat (Avena fatua), 14 Days After Application, read-out: Visual Growth Reduction (%) AVEFA
[22] = yellow nutsedge (Cyperus esculentus), 14 Days After Application, read-out: Visual Growth Reduction (%) CYPES

Structure (SMILES): COC(=O)c1nc(-c2ccc(C(F)(F)F)cc2Cl)c(C#N)cc1Cl [F3, Methyl 3-chloro-6-(2-chloro-4-(trifluoromethyl)phenyl)-5-cyanopicolinate]
- pest or weed control at 140 g/ha [1]: 0 to 29%
- pest or weed control at 140 g/ha [2]: 0 to 29%
- pest or weed control at 140 g/ha [3]: 0 to 29%
- pest or weed control at 140 g/ha [4]: 75 to 84%
- pest or weed control at 140 g/ha [5]: 0 to 29%
- pest or weed control at 140 g/ha [6]: 0 to 29%
- pest or weed control at 140 g/ha [7]: 60 to 74%
- pest or weed control at 140 g/ha (barnyardgrass (Echinochloa crus-galli), 14 Days After Application, read-out: Visual Growth Reduction (%) ECHCG): 0 to 29%
- pest or weed control at 140 g/ha (common chickweed (Stellaria media), 14 Days After Application, read-out: Visual Growth Reduction (%) STEME): 0 to 29%
- pest or weed control at 140 g/ha (giant foxtail (Setaria faberi), 14 Days After Application, read-out: Visual Growth Reduction (%) SETFA): 0 to 29%
- pest or weed control at 140 g/ha (ivy-leaf morning glory (Ipomoea hederacea), 14 Days After Application, read-out: Visual Growth Reduction (%) IPOHE): 60 to 74%
- pest or weed control at 140 g/ha (johnsongrass (Sorghum vulgare), 14 Days After Application, read-out: Visual Growth Reduction (%) SORVU): 0 to 29%
- pest or weed control at 140 g/ha (kochia (Bassia scoparia), 14 Days After Application, read-out: Visual Growth Reduction (%) KCHSC): 0 to 29%
- pest or weed control at 140 g/ha (rice (Oryza sativa), 14 Days After Application, read-out: Visual Growth Reduction (%) ORYSA): 0 to 29%
- pest or weed control at 140 g/ha (wheat, spring (Triticum aestivum), 14 Days After Application, read-out: Visual Growth Reduction (%) TRZAS): 0 to 29%

Structure (SMILES): COC(=O)c1nc(-c2ccc(C(F)(F)F)cc2)c(Cl)cc1Cl [F106, Methyl 3,5-dichloro-6-(4-(trifluoromethyl)phenyl)picolinate]
- pest or weed control at 140 g/ha [1]: 0 to 29%
- pest or weed control at 140 g/ha [2]: 45 to 59%
- pest or weed control at 140 g/ha [3]: 0 to 29%
- pest or weed control at 140 g/ha [4]: 30 to 44%
- pest or weed control at 140 g/ha [5]: 0 to 29%
- pest or weed control at 140 g/ha [6]: 0 to 29%
- pest or weed control at 140 g/ha [7]: 45 to 59%
- pest or weed control at 140 g/ha [8]: 0 to 29%
- pest or weed control at 140 g/ha [9]: 45 to 59%
- pest or weed control at 140 g/ha [10]: 0 to 29%
- pest or weed control at 140 g/ha [11]: 0 to 29%
- pest or weed control at 140 g/ha [12]: 0 to 29%
- pest or weed control at 140 g/ha [13]: 30 to 44%
- pest or weed control at 140 g/ha [14]: 0 to 29%
- pest or weed control at 140 g/ha [15]: 0 to 29%

Structure (SMILES): COC(=O)c1nc(-c2ccc(C=O)cc2Cl)ccc1Cl [F22, methyl 3-chloro-6-(2-chloro-4-formylphenyl)picolinate]
- pest or weed control at 140 g/ha [1]: 0 to 29%
- pest or weed control at 140 g/ha [2]: 0 to 29%
- pest or weed control at 140 g/ha [3]: 0 to 29%
- pest or weed control at 140 g/ha [4]: 0 to 29%
- pest or weed control at 140 g/ha [5]: 0 to 29%
- pest or weed control at 140 g/ha [6]: 0 to 29%
- pest or weed control at 140 g/ha [7]: 0 to 29%
- pest or weed control at 140 g/ha [8]: 0 to 29%
- pest or weed control at 140 g/ha [9]: 0 to 29%
- pest or weed control at 140 g/ha [10]: 0 to 29%
- pest or weed control at 140 g/ha [11]: 0 to 29%
- pest or weed control at 140 g/ha [12]: 0 to 29%
- pest or weed control at 140 g/ha [13]: 0 to 29%
- pest or weed control at 140 g/ha [14]: 0 to 29%
- pest or weed control at 140 g/ha [15]: 0 to 29%

Structure (SMILES): COC(=O)c1nc(-c2cc3nonc3cc2F)c(F)cc1Cl [F318, Methyl 3-chloro-5-fluoro-6-(6-fluorobenzo[c][1,2,5]oxadiazol-5-yl)picolinate]
- pest or weed control at 140 g/ha [8]: 85 to 94%
- pest or weed control at 140 g/ha [9]: 95 to 100%
- pest or weed control at 140 g/ha [10]: 0 to 29%
- pest or weed control at 140 g/ha [11]: 0 to 29%
- pest or weed control at 140 g/ha [12]: 75 to 84%
- pest or weed control at 140 g/ha [13]: 85 to 94%
- pest or weed control at 140 g/ha [14]: 0 to 29%
- pest or weed control at 140 g/ha [15]: 0 to 29%
- pest or weed control at 140 g/ha [16]: 0 to 29%
- pest or weed control at 140 g/ha [17]: 0 to 29%
- pest or weed control at 140 g/ha [18]: 85 to 94%
- pest or weed control at 140 g/ha [19]: 60 to 74%
- pest or weed control at 140 g/ha [20]: 60 to 74%
- pest or weed control at 140 g/ha [21]: 0 to 29%
- pest or weed control at 140 g/ha [22]: 0 to 29%

Structure (SMILES): COC(=O)c1nc(-c2ccc(Cl)c3c2OC(F)(F)O3)ccc1Cl [F68, Methyl 3-chloro-6-(7-chloro-2,2-difluorobenzo[d] [1,3]dioxol-4-yl)picolinate]
- pest or weed control at 140 g/ha [1]: 0 to 29%
- pest or weed control at 140 g/ha [2]: 0 to 29%
- pest or weed control at 140 g/ha [3]: 0 to 29%
- pest or weed control at 140 g/ha [4]: 0 to 29%
- pest or weed control at 140 g/ha [5]: 0 to 29%
- pest or weed control at 140 g/ha [7]: 0 to 29%
- pest or weed control at 140 g/ha [8]: 0 to 29%
- pest or weed control at 140 g/ha [9]: 0 to 29%
- pest or weed control at 140 g/ha [10]: 0 to 29%
- pest or weed control at 140 g/ha [11]: 0 to 29%
- pest or weed control at 140 g/ha [12]: 0 to 29%
- pest or weed control at 140 g/ha [13]: 0 to 29%
- pest or weed control at 140 g/ha [14]: 0 to 29%

Structure (SMILES): COC(=O)c1nc(-c2ccc3ccsc3c2F)c(F)cc1Cl [F266, Methyl 3-chloro-5-fluoro-6-(7-fluorobenzo[b]thiophen-6-yl)picolinate]
- pest or weed control at 140 g/ha [8]: 0 to 29%
- pest or weed control at 140 g/ha [9]: 0 to 29%
- pest or weed control at 140 g/ha [10]: 0 to 29%
- pest or weed control at 140 g/ha [11]: 0 to 29%
- pest or weed control at 140 g/ha [12]: 0 to 29%
- pest or weed control at 140 g/ha [13]: 0 to 29%
- pest or weed control at 140 g/ha [14]: 0 to 29%
- pest or weed control at 140 g/ha [15]: 0 to 29%
- pest or weed control at 140 g/ha [16]: 0 to 29%
- pest or weed control at 140 g/ha [17]: 0 to 29%
- pest or weed control at 140 g/ha [18]: 0 to 29%
- pest or weed control at 140 g/ha [19]: 0 to 29%
- pest or weed control at 140 g/ha [20]: 0 to 29%
- pest or weed control at 140 g/ha [21]: 0 to 29%
- pest or weed control at 140 g/ha [22]: 0 to 29%

Structure (SMILES): COC(=O)c1nc(-c2ccc(OC)nc2)ccc1Cl [F269, Methyl 5-chloro-6′-methoxy-[2,3′-bipyridine]-6-carboxylate]
- pest or weed control at 140 g/ha [8]: 0 to 29%
- pest or weed control at 140 g/ha [9]: 0 to 29%
- pest or weed control at 140 g/ha [10]: 30 to 44%
- pest or weed control at 140 g/ha [11]: 0 to 29%
- pest or weed control at 140 g/ha [12]: 0 to 29%
- pest or weed control at 140 g/ha [13]: 0 to 29%
- pest or weed control at 140 g/ha [14]: 0 to 29%
- pest or weed control at 140 g/ha [15]: 0 to 29%
- pest or weed control at 140 g/ha [16]: 0 to 29%
- pest or weed control at 140 g/ha [17]: 30 to 44%
- pest or weed control at 140 g/ha [18]: 0 to 29%
- pest or weed control at 140 g/ha [19]: 0 to 29%
- pest or weed control at 140 g/ha [20]: 0 to 29%
- pest or weed control at 140 g/ha [21]: 0 to 29%
- pest or weed control at 140 g/ha [22]: 0 to 29%
